According to ChEMBL document CHEMBL5321237 (Eur J Med Chem, 2023):
Converted amounts (≈) assume the structure as drawn.

Columns and labels:
[1] = target: T1, Macrophage colony-stimulating factor 1 receptor (Homo sapiens, UniProt P07333); assay: Inhibition of CSF1R (unknown origin) using FRET-peptide as substrate incubated in presence of ATP by FRET based Z-LYTE assay
[2] = target: Mast/stem cell growth factor receptor Kit (Homo sapiens) (UniProt P10721); assay: Inhibition of autoinhibited wild type human KIT binding to streptavidin-coated magnetic beads immobilized biotinylated ligand at 500 nM incubated for 1 hr by qPCR analysis relative to control
Mast/stem cell growth factor receptor Kit (Homo sapiens), sequence (P10721 whole entry): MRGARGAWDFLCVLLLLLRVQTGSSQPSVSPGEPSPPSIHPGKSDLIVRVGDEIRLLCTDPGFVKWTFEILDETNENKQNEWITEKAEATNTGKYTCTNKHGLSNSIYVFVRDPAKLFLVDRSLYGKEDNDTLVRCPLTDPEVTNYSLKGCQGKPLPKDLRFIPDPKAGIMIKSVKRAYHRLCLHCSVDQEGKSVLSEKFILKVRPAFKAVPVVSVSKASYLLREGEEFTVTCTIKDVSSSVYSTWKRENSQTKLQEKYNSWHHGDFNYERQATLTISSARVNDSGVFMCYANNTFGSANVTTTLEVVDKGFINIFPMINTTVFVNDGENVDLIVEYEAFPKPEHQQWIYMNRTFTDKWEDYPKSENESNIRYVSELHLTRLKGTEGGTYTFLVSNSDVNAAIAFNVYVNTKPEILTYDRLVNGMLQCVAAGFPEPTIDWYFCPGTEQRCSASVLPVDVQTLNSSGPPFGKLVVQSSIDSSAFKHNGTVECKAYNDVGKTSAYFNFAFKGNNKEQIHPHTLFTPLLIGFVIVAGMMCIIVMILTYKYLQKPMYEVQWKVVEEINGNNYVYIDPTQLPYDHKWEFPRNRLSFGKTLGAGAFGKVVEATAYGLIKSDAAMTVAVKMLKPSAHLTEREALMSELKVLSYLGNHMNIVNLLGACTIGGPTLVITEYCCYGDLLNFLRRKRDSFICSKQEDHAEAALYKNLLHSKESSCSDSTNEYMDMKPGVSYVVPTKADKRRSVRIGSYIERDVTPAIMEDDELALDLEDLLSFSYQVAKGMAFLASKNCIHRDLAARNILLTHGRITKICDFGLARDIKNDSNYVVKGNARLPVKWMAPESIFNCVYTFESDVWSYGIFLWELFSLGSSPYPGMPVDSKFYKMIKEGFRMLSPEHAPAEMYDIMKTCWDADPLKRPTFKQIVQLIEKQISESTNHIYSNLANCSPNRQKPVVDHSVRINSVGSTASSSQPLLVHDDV

[3] = target: Receptor-type tyrosine-protein kinase FLT3 (Homo sapiens) (UniProt P36888); assay: Inhibition of autoinhibited human FLT3 binding to streptavidin-coated magnetic beads immobilized biotinylated ligand at 500 nM incubated for 1 hr by qPCR analysis relative to control
[4] = target: Platelet-derived growth factor receptor alpha (Homo sapiens) (UniProt P16234); assay: Inhibition of human PDGFRalpha binding to streptavidin-coated magnetic beads immobilized biotinylated ligand at 500 nM incubated for 1 hr by qPCR analysis relative to control
Platelet-derived growth factor receptor alpha (Homo sapiens), sequence (P16234 whole entry): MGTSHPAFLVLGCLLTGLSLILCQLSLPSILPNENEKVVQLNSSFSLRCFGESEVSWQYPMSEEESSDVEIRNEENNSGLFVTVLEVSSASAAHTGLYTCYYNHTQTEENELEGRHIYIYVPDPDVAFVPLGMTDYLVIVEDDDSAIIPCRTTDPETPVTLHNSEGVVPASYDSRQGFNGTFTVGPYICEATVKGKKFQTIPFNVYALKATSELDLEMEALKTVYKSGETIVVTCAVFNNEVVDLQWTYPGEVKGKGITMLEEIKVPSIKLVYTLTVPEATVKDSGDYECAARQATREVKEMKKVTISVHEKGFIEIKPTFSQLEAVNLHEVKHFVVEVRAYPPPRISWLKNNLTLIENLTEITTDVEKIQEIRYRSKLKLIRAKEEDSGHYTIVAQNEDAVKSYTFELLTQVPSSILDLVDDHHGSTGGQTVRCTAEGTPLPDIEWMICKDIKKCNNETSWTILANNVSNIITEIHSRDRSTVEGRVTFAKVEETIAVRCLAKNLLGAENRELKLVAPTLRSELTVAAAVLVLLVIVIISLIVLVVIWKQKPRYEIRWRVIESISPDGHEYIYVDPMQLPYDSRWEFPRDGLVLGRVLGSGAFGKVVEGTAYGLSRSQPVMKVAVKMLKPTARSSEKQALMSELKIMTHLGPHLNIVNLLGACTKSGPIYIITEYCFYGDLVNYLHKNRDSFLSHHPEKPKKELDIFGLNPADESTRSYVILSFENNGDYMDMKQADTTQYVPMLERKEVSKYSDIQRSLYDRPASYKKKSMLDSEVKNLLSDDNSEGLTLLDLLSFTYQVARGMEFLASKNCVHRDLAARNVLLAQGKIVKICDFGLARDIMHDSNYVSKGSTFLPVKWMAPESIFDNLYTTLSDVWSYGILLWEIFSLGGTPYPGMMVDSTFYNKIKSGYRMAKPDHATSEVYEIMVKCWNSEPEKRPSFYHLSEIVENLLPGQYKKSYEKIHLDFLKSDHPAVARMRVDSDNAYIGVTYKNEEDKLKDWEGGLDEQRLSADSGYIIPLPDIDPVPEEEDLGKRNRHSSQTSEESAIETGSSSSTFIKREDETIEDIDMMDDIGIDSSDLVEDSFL

[5] = target: Platelet-derived growth factor receptor beta (Homo sapiens) (UniProt P09619); assay: Inhibition of human PDGFRbeta binding to streptavidin-coated magnetic beads immobilized biotinylated ligand at 500 nM incubated for 1 hr by qPCR analysis relative to control
Platelet-derived growth factor receptor beta (Homo sapiens), sequence (P09619 whole entry): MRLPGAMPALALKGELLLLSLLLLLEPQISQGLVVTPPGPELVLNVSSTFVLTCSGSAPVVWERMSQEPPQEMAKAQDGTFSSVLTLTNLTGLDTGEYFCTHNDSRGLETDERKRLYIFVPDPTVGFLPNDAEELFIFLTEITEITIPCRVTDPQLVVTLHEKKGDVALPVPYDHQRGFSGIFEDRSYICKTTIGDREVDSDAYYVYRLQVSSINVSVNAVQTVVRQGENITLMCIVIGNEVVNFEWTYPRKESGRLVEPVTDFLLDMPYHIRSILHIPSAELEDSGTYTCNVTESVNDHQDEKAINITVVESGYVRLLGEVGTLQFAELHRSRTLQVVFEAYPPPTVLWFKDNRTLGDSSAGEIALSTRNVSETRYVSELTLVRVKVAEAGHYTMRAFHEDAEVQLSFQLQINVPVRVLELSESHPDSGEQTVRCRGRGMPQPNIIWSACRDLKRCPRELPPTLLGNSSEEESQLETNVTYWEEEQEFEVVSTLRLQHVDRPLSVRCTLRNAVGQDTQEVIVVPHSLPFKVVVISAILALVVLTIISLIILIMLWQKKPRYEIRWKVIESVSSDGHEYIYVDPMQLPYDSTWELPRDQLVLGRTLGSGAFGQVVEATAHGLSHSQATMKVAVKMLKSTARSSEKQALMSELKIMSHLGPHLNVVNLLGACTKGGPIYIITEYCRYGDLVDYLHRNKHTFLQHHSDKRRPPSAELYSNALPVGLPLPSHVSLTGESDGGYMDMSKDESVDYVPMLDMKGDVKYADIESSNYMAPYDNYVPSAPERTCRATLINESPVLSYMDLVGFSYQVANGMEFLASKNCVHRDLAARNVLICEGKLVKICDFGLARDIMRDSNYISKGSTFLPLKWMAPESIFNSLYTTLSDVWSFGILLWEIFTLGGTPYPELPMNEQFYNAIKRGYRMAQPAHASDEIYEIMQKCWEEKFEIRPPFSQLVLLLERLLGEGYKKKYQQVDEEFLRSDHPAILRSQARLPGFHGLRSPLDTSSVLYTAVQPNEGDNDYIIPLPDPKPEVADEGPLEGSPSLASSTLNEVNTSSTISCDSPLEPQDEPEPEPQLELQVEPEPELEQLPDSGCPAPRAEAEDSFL

[6] = system: T2, Receptor-type tyrosine-protein kinase FLT3 (Homo sapiens), P36888 [D835V]; assay: Competitive binding affinity to human FLT3 D835V mutant at 500 nM incubated for 1 hr by qPCR analysis relative to control
T2 sequence (whole entry): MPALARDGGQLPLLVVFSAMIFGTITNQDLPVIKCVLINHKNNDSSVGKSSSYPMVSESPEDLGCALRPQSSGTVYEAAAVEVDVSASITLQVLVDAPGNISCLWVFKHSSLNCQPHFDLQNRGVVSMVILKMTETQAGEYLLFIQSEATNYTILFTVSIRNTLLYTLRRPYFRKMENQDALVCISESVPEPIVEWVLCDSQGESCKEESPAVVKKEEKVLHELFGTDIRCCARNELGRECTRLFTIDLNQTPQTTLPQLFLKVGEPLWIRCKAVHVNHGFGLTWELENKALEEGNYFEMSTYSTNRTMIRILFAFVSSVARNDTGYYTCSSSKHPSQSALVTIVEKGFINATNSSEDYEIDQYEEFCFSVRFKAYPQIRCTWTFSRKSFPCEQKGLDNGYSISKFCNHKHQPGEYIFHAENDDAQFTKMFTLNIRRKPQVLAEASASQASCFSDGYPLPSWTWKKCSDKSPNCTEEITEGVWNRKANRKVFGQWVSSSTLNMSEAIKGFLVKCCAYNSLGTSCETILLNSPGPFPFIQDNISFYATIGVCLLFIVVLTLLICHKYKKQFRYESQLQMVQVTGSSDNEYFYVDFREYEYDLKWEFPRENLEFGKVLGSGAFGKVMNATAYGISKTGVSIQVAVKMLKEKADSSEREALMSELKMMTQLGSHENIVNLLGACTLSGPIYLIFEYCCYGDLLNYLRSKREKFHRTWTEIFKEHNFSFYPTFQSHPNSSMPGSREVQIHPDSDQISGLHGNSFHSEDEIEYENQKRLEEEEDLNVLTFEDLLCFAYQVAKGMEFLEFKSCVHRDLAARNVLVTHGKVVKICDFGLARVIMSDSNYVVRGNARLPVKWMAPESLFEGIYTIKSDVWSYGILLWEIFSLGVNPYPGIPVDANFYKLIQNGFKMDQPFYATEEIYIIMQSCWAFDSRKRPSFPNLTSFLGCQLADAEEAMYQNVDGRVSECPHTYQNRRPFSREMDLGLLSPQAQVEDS

[7] = system: Tyrosine-protein kinase ABL1 (Homo sapiens), P00519 [H396P]; assay: Competitive binding affinity to human ABL1 H396P mutant at 500 nM incubated for 1 hr by qPCR analysis relative to control
[8] = target: T3, Macrophage colony-stimulating factor 1 receptor (Mus musculus, UniProt P09581); assay: Inhibition of CSF1-induced CSF1R signalling in mouse BMDM cells assessed as reduction in ERK1/2 phosphorylation preincubated for 30 mins followed by CSF1 addition and measured after 10 mins; type: cell-based
T3 sequence (P09581 whole entry): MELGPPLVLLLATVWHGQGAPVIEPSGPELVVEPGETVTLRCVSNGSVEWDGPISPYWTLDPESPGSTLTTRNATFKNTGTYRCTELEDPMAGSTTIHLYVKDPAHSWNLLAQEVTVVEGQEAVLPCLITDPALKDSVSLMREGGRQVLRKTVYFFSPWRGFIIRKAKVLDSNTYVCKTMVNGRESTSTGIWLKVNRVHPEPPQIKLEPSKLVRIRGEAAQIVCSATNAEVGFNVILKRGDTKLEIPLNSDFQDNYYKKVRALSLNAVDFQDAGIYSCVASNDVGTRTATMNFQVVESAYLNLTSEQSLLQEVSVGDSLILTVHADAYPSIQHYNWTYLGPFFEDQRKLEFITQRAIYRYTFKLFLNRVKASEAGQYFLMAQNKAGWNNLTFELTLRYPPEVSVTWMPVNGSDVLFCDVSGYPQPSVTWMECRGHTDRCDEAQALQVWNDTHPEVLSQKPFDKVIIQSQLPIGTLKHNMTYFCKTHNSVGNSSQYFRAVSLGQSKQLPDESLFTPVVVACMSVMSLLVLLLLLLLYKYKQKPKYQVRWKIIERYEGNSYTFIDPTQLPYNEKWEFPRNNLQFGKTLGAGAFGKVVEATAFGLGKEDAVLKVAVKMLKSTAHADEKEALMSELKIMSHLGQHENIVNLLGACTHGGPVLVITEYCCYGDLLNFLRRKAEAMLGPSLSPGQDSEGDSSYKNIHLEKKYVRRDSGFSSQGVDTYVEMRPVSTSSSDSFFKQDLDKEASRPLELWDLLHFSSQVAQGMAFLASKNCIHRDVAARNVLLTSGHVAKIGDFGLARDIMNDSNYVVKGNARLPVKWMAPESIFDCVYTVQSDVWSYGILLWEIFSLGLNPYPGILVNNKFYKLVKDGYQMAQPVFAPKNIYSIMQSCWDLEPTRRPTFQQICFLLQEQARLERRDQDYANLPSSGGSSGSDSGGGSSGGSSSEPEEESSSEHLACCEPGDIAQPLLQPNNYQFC

[9] = Kinetic aqueous solubility of compound at pH 7.4 at 500 uM incubated for 90 mins by spectrophotometry analysis; type: physicochemical; settings: buffer, read-out: Kinetic_solubility
[10] = Metabolic stability in mouse liver microsomes assessed as intrinsic clearance at 3 uM measured upto 50 mins by LC-MS analysis; type: ADME, Microsome
[11] = Metabolic stability in human liver microsomes assessed as intrinsic clearance at 3 uM measured upto 50 mins by LC-MS analysis; type: ADME, Microsome
[12] = target: T1, Macrophage colony-stimulating factor 1 receptor; assay: Binding affinity to autoinhibited form of CSF1R (unknown origin) assessed as dissociation constant incubated for 1 hr by qPCR based Hill equation analysis
[13] = target: T1, Macrophage colony-stimulating factor 1 receptor; assay: Binding affinity to non-autoinhibited form of CSF1R (unknown origin) assessed as dissociation constant incubated for 1 hr by qPCR based Hill equation analysis

T1 sequence (P07333 whole entry): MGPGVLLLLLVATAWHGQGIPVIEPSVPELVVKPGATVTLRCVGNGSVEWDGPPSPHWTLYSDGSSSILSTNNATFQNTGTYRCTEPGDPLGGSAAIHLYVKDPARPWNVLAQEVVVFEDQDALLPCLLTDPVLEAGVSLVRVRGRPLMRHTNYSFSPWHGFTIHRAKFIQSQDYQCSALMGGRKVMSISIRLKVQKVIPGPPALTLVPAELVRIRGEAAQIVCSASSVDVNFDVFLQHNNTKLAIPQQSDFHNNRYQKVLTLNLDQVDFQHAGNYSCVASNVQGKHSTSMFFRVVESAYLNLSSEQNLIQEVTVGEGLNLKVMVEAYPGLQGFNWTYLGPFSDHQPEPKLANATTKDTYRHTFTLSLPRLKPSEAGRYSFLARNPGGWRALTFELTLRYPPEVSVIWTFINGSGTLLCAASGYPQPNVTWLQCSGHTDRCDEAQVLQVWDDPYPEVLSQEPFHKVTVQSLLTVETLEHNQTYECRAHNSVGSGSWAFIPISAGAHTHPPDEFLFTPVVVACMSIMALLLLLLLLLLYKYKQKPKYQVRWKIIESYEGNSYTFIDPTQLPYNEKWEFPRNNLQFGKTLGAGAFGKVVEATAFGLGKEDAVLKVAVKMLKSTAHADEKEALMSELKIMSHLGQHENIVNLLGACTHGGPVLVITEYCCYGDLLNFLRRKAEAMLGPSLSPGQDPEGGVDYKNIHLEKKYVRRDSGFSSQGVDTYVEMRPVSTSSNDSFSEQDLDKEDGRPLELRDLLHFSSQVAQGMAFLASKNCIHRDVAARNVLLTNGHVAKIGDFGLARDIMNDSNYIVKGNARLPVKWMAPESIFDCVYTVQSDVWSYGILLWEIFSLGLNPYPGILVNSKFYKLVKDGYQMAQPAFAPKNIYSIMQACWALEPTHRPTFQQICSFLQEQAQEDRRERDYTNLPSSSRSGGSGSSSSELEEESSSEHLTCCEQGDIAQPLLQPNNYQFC

With `CN(CC1CCCC1)c1ncnc2[nH]c(-c3ccc(CO)cc3)nc12` the IC50 [1] was 0.5 nM, the inhibition [2] was 12% and the inhibition [3] was 12%. It also gave an inhibition [4] of 12%, an inhibition [5] of 12% and an Activity [6] of 92%. The Activity [7] was 96%, the IC50 [8] was 40 nM and the solubility kinetic at […], 500 µM [9] was 3.5 µM (≈ 1.18 µg/mL). It also gave a CLint [10] of 243 µL/min/mg, a CLint [11] of 36.4 µL/min/mg and a Kd [12] of 17 nM. The Kd [13] was 220 nM.
